Assay results taken from US10167262B2, “Herbicidal substituted 3-arylpyrazoles” (FMC CORPORATION, priority 2014, dated 2019).

Legend:
Format in all cases: in vivo
wild oat (Avena fatua) = assay: Test C postemergence greenhouse test, plant response rating 0-100; details: for Plant response rating, Oat, Wild: 250 g ai/ha, scale 0 to 100
Excerpt: (§1) At the same time, plants selected from these crop and weed species and also winter barley (Hordeum vulgare), bermudagrass (Cynodon dactylon), downy bromegrass (Bromus tectorum), canarygrass (Phalaris minor), cocklebur (common cocklebur, Xanthium strumarium), woolly cupgrass (Eriochloa villosa), deadnettle (henbit deadnettle, Lamium amplexicaule), green foxtail (Setaria viridis), goosegrass (Eleusine indica), surinam grass (Brachiaria decumbens), windgrass (Apera spica-venti), chickweed (common chickweed, Stellaria media), kochia (Kochia scoparia), and wild oat (Avena fatua), were planted in pots containing Redi-Earth® planting medium (Scotts Company, 14111 Scottslawn Road, Marysville, Ohio 43041) comprising spaghnum peat moss, vermiculite, wetting agent and starter nutrients and treated with postemergence applications of test chemicals formulated in the same manner. Plants ranged in height from 2 to 18 cm (1- to 4-leaf stage) for postemergence treatments. Treated plants and controls were maintained in a greenhouse for 13 to 15 days, after which time all species were compared to controls and visually evaluated. Plant response ratings, summarized in Table C, are based on a scale of 0 to 100 where 0 is no effect and 100 is complete control. A dash (-) response means no test result.

[1] = tested on: chickweed (common chickweed, Stellaria media); assay: as above; details: for Plant response rating, Chickweed: 250 g ai/ha, scale 0 to 100
Excerpt: as §1

kochia (Kochia scoparia) = assay: as above; details: for Plant response rating, Kochia: 250 g ai/ha, scale 0 to 100
Excerpt: as §1

[2] = tested on: pigweed (Amaranthus retroflexus); assay: Test C pre-/postemergence greenhouse test, plant response rating 0-100; details: Postemergence; for Plant response rating, Pigweed: 250 g ai/ha, scale 0 to 100
How it was run: (§2)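 Formulated in solvent with surfactant, test chemicals were sprayed on seeded loam/sand pots and, concurrently, on young plants 2–18 cm tall. Evaluation: visual, versus controls, day 13–15.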

[3] = tested on: lambsquarters (Chenopodium album); assay: as above; details: Postemergence; for Plant response rating, Lambsquarters: 250 g ai/ha, scale 0 to 100
How it was run: as §2

soybean (Glycine max) = assay: as above; details: Postemergence; for Plant response rating, Soybean: 250 g ai/ha, scale 0 to 100
How it was run: as §2

[4] = tested on: blackgrass (Alopecurus myosuroides); assay: as above; details: Postemergence; for Plant response rating, Blackgrass: scale 0 to 100
How it was run: as §2

corn (Zea mays) = assay: as above; details: Postemergence
How it was run: as §2

[5] = tested on: johnsongrass (Sorghum halepense); assay: as above; details: Postemergence; for Plant response rating, Johnsongrass: 250 g ai/ha, scale 0 to 100
How it was run: as §2

[6] = tested on: large (Lg) crabgrass (Digitaria sanguinalis); assay: as above; details: Postemergence; for Plant response rating, Crabgrass, Large: 250 g ai/ha, scale 0 to 100
How it was run: as §2

[7] = tested on: yellow nutsedge (Cyperus esculentus); assay: as above; details: Postemergence; for Plant response rating, Nutsedge, Yellow: 250 g ai/ha, scale 0 to 100
How it was run: as §2

[8] = tested on: winter wheat (Triticum aestivum); assay: as above; details: Postemergence; for Plant response rating, Wheat: 250 g ai/ha, scale 0 to 100
How it was run: as §2

[9] = tested on: giant foxtail (Setaria faberii); assay: as above; details: Postemergence; for Plant response rating, Foxtail, Giant: 250 g ai/ha, scale 0 to 100
How it was run: as §2

Cn1cc(C(=NN2CCCC2)c2ccccc2)c(-c2cc(Cl)c(Cl)c(Cl)c2)n1 [Compound 25]
5: Plant response rating, Blackgrass ([4]; 250 g ai/ha)
98: Plant response rating (0 to 100), Pigweed ([2]; 125 g ai/ha)
0: Plant response rating (0 to 100), Oat, Wild (wild oat (Avena fatua); 62 g ai/ha) | Plant response rating (0 to 100), Oat, Wild (wild oat (Avena fatua); 125 g ai/ha) | Plant response rating (0 to 100), Kochia (kochia (Kochia scoparia); 62 g ai/ha) | Plant response rating (0 to 100), Lambsquarters ([3]; 62 g ai/ha) | Plant response rating (0 to 100), Lambsquarters ([3]; 125 g ai/ha) | Plant response rating (0 to 100), Soybean (soybean (Glycine max); 62 g ai/ha) | Plant response rating (0 to 100), Soybean (soybean (Glycine max); 125 g ai/ha) | Plant response rating (0 to 100), Blackgrass ([4]; 31 g ai/ha) | Plant response rating (0 to 100), Blackgrass ([4]; 62 g ai/ha) | Plant response rating, Blackgrass ([4]; 125 g ai/ha) | Plant response rating (0 to 100), Corn (corn (Zea mays); 31 g ai/ha) | Plant response rating (0 to 100), Corn (corn (Zea mays); 62 g ai/ha) | Plant response rating (0 to 100), Corn (corn (Zea mays); 125 g ai/ha) | Plant response rating, Corn (corn (Zea mays); 250 g ai/ha, scale 0 to 100) | Plant response rating (0 to 100), Johnsongrass ([5]; 62 g ai/ha) | Plant response rating (0 to 100), Johnsongrass ([5]; 125 g ai/ha) | Plant response rating, Johnsongrass [5] | Plant response rating (0 to 100), Crabgrass, Large ([6]; 31 g ai/ha) | Plant response rating (0 to 100), Crabgrass, Large ([6]; 62 g ai/ha) | Plant response rating (0 to 100), Crabgrass, Large ([6]; 125 g ai/ha) | Plant response rating, Crabgrass, Large [6] | Plant response rating (0 to 100), Nutsedge, Yellow ([7]; 62 g ai/ha) | Plant response rating (0 to 100), Nutsedge, Yellow ([7]; 125 g ai/ha) | Plant response rating, Nutsedge, Yellow [7] | Plant response rating (0 to 100), Wheat ([8]; 62 g ai/ha) | Plant response rating (0 to 100), Wheat ([8]; 125 g ai/ha) | Plant response rating, Wheat [8] | Plant response rating (0 to 100), Foxtail, Giant ([9]; 31 g ai/ha) | Plant response rating (0 to 100), Foxtail, Giant ([9]; 62 g ai/ha) | Plant response rating (0 to 100), Foxtail, Giant ([9]; 125 g ai/ha) | Plant response rating, Foxtail, Giant [9]
75: Plant response rating (0 to 100), Chickweed ([1]; 62 g ai/ha) | Plant response rating (0 to 100), Chickweed ([1]; 125 g ai/ha) | Plant response rating, Chickweed [1]
10: Plant response rating, Oat, Wild (wild oat (Avena fatua)) | Plant response rating (0 to 100), Chickweed ([1]; 31 g ai/ha) | Plant response rating, Soybean (soybean (Glycine max))
15: Plant response rating (0 to 100), Kochia (kochia (Kochia scoparia); 125 g ai/ha) | Plant response rating, Kochia (kochia (Kochia scoparia))
20: Plant response rating, Lambsquarters [3]
80: Plant response rating (0 to 100), Pigweed ([2]; 62 g ai/ha)
100: Plant response rating, Pigweed [2]

CCn1cc(C(=O)c2ccccc2)c(-c2cc(Br)cc(Br)c2)n1 [Compound 38]
100: Plant response rating, Chickweed [1] | Plant response rating, Pigweed [2] | Plant response rating, Lambsquarters [3]
75: Plant response rating (0 to 100), Lambsquarters ([3]; 62 g ai/ha) | Plant response rating (0 to 100), Lambsquarters ([3]; 125 g ai/ha)
20: Plant response rating (0 to 100), Chickweed ([1]; 31 g ai/ha)
50: Plant response rating (0 to 100), Chickweed ([1]; 62 g ai/ha) | Plant response rating, Kochia (kochia (Kochia scoparia))
35: Plant response rating (0 to 100), Kochia (kochia (Kochia scoparia); 62 g ai/ha)
5: Plant response rating, Blackgrass ([4]; 250 g ai/ha) | Plant response rating, Wheat [8]
0: Plant response rating (0 to 100), Oat, Wild (wild oat (Avena fatua); 62 g ai/ha) | Plant response rating (0 to 100), Oat, Wild (wild oat (Avena fatua); 125 g ai/ha) | Plant response rating, Oat, Wild (wild oat (Avena fatua)) | Plant response rating (0 to 100), Soybean (soybean (Glycine max); 62 g ai/ha) | Plant response rating (0 to 100), Soybean (soybean (Glycine max); 125 g ai/ha) | Plant response rating, Soybean (soybean (Glycine max)) | Plant response rating (0 to 100), Blackgrass ([4]; 31 g ai/ha) | Plant response rating (0 to 100), Blackgrass ([4]; 62 g ai/ha) | Plant response rating (0 to 100), Blackgrass ([4]; 125 g ai/ha) | Plant response rating (0 to 100), Johnsongrass ([5]; 62 g ai/ha) | Plant response rating (0 to 100), Johnsongrass ([5]; 125 g ai/ha) | Plant response rating, Johnsongrass [5] | Plant response rating (0 to 100), Crabgrass, Large ([6]; 31 g ai/ha) | Plant response rating (0 to 100), Crabgrass, Large ([6]; 62 g ai/ha) | Plant response rating (0 to 100), Crabgrass, Large ([6]; 125 g ai/ha) | Plant response rating, Crabgrass, Large [6] | Plant response rating (0 to 100), Nutsedge, Yellow ([7]; 62 g ai/ha) | Plant response rating (0 to 100), Nutsedge, Yellow ([7]; 125 g ai/ha) | Plant response rating, Nutsedge, Yellow [7] | Plant response rating (0 to 100), Wheat ([8]; 62 g ai/ha) | Plant response rating (0 to 100), Wheat ([8]; 125 g ai/ha) | Plant response rating (0 to 100), Foxtail, Giant ([9]; 31 g ai/ha) | Plant response rating (0 to 100), Foxtail, Giant ([9]; 62 g ai/ha) | Plant response rating (0 to 100), Foxtail, Giant ([9]; 125 g ai/ha) | Plant response rating, Foxtail, Giant [9]
85: Plant response rating (0 to 100), Pigweed ([2]; 62 g ai/ha)
60: Plant response rating (0 to 100), Chickweed ([1]; 125 g ai/ha)
